Assay results as given in EP4700025A1, “AMIDE COMPOUND, PHARMACEUTICAL COMPOSITION COMPRISING SAME, AND USE THEREOF” (Suzhou Genhouse Bio Co., Ltd., priority 2023, dated 2024).
One block for each compound: values may come before it.

Assays:
SDMA [1] = experiment: SDMA Inhibition Assay in HCT-116-MTAP^-/- cells; type: cell-based; details: Homo sapiens, 96 hours
Description: (§1) The next day, the cells were treated with the compounds at different concentrations (with an initial concentration of 10 µM, 5-fold dilution, 9 concentration gradients). After 96 hours, the culture medium was pipetted out and the cells were washed 2 times with 100 µL of PBS. The cells were then fixed with 4% paraformaldehyde and incubated at room temperature for 20 min. The fixative solution was discarded, and the cells were washed with PBS. 150 µL of specialized blocking solution (containing 1% Triton-100) was added to each well for blocking at room temperature for 2 hours, and the plate was washed with PBS to remove excess blocking solution. […] The cells were incubated at 4 °C overnight. The next day, the cells were separately washed 2 times with 1× PBST. […] The cells were incubated at room temperature for 2 hours. The cells were washed 2 times with 1× PBST and 1 time with PBS. Fluorescence signals at 700 nm and 800 nm were separately detected using a Li-COR Odyssey two-color near-infrared laser imager. The inhibition rates were calculated, and the EC50 values were determined by fitting using the GraphPad Prism 7.0 software. Table 3. Inhibition of SDMA by test compounds

A549 = experiment: CCK8 proliferation inhibition, A549; type: cell-based; details: Homo sapiens, 192 h, CCK8, 8 days after drug treatment
Description: (§2) The above normally growing cells were digested with a cell trypsinization solution, centrifuged, counted, and seeded into a 96-well plate at an appropriate cell density (2000 cells/well) at 100 µL/well. The next day after cell seeding, the compounds at different concentrations were added to the wells. Three replicate wells were set for each concentration point, and a corresponding DMSO negative control group was also set. CCK8 solution was added to each well 8 days after drug treatment. The plate was incubated at 37 °C for a period of time (OD450 of the vehicle group reached 1.0 or higher) before the absorbance at 450 nm was read using a microplate reader. The inhibition rates were calculated, and the EC50 values were determined by fitting using the GraphPad Prism 7.0 software. Table 2. EC50 values of compounds at cellular level

HCT-116 = experiment: CCK8 proliferation inhibition, HCT-116; type: cell-based; details: Homo sapiens, 192 h, CCK8, 8 days after drug treatment
Description: as §2

SDMA [2] = experiment: SDMA Inhibition Assay in A549 cells; type: cell-based; details: Homo sapiens, A549, 96 hours
Description: as §1

SDMA [3] = experiment: SDMA Inhibition Assay in HCT-116 cells; type: cell-based; details: Homo sapiens, HCT-116, 96 hours
Description: as §1

HCT-116-MTAP^-/- = experiment: CCK8 proliferation inhibition, HCT-116-MTAP^-/-; type: cell-based; details: Homo sapiens, 192 h; HCT-116-MTAP^-/- (MTAP-deficient); CCK8, 8 days after drug treatment
Description: as §2

[4] = Pharmacokinetic assay in rats; type: in vivo, SD rats; details: rat; for MRT inf: read-out: MRT(0-∞)
Description: In this experimental example, the pharmacokinetic behavior of the test compounds after administration by intravenous injection (IV) and oral gavage (PO) in SD rats was tested.
On the day of administration, rats were weighed for actual body weight, and the administration volume was calculated. Each compound was tested in two groups with 3 rats in each group; one group was subjected to administration by single intravenous injection, and the other group was subjected to administration by single oral gavage. The whole blood samples were collected via the jugular vein at prescribed time points (0.25 h, 0.5 h, 1 h, 2 h, 4 h, 8 h, and 24 h after administration). After the blood sample collection, the samples were immediately transferred to labeled commercial sample tubes containing K2-EDTA (0.85-1.15 mg), followed by centrifugation (3200× g, 4 °C, 10 min) and plasma collection. The plasma was transferred to a pre-cooled centrifuge tube, frozen in dry ice, and then stored in an ultra-low temperature freezer at -60 °C or lower until the LC-MS/MS analysis was performed.
Plasma concentrations were determined by the LC-MS/MS method. Plasma drug concentration data for the compounds were processed using a non-compartmental model in the WinNonlin Version 6.3 (Pharsight, Mountain View, CA) pharmacokinetic software. The relevant pharmacokinetic parameters were calculated by a linear-log trapezoidal method.

[5] = Pharmacokinetic assay in mice; type: in vivo, Balb/c mice; details: mouse; for MRT inf: read-out: MRT(0-∞)
Description: Eighteen male Balb/c mice aged 6 to 8 weeks were randomly divided into 2 groups (IV group and PO group). The corresponding compounds were administered to the animals in the IV group by tail intravenous injection at 2 mg/kg, and the corresponding compounds were administered to the animals in the PO group by oral gavage at 10 mg/kg or 100 mg/kg. The animals in the IV group were allowed free access to food and water, and the animals in the PO group were fasted overnight before administration and were fed 4 h after administration. Throughout the experiment, the animals were allowed free access to water. Plasma samples were separately collected at 0.083 h (only group IV), 0.25 h, 0.5 h, 1 h, 2 h, 4 h, 8 h, and 24 h after administration. About 100 µL of blood was collected from the orbit of the animal, placed into a 1.5 mL anticoagulation centrifuge tube, and centrifuged at 8000 rpm and 4 °C for 10 min. The upper plasma sample was transferred to an EP tube. The plasma samples were stored in a refrigerator at -80 °C until sample analysis. Pharmacokinetic parameters of the drug were calculated based on the drug concentration-time data, including the peak concentration Cmax, peak time Tmax, clearance rate CL, steady state apparent volume of distribution Vss, area under drug-time curve AUC, elimination half-life t1/2, bioavailability, and the like. Data below the 80% lower limit of quantification were excluded from the calculation of pharmacokinetic parameters.

[6] = male, Balb/c, plasma, 2 mg/kg, IV 2mpk
[7] = male, Balb/c, plasma, 10 mg/kg, PO 10mpk

- EC50 (SDMA [1]): 3.5 nM
- EC50 (A549): 10.8 nM
- EC50 (SDMA [2]): 2.1 nM
- EC50 (HCT-116-MTAP^-/-): 3.4 nM
SMILES: CC(C)N(Cc1ccc2c(c1)OC(F)(F)O2)C(=O)c1cc2c(cc1F)nc(N)c1cnn(C)c12 [Example I-13]

- EC50 (SDMA [1]): 5.3 nM
- EC50 (A549): 36.9 nM
- EC50 (HCT-116): 1200 nM
- EC50 (SDMA [2]): 2 nM
- EC50 (SDMA [3]): 374 nM
- EC50 (HCT-116-MTAP^-/-): 7.9 nM
SMILES: CC(C)N(Cc1ccc2c(c1)OC(F)(F)O2)C(=O)c1ccc2nc(N)c3cnn(C)c3c2c1 [Example I-14]

- EC50 (SDMA [1]): 1.1 nM
- EC50 (A549): 18.5 nM
- EC50 (HCT-116): 935 nM
- EC50 (SDMA [2]): 0.6 nM
- EC50 (HCT-116-MTAP^-/-): 5.6 nM
SMILES: Cn1ncc2c(N)nc3cc(F)c(C(=O)N(Cc4ccc5c(c4)OC(F)(F)O5)[C@@H]4CCOC4)cc3c21 [Example I-22]

- EC50 (SDMA [1]): 1.3 nM
- EC50 (A549): 7.7 nM
- EC50 (SDMA [2]): 0.8 nM
- EC50 (HCT-116-MTAP^-/-): 2.1 nM
SMILES: COCCN(Cc1ccc2c(c1)OC(F)(F)O2)C(=O)c1cc2c(cc1F)nc(N)c1cnn(C)c12 [Example I-23]

- EC50 (SDMA [1]): 1.7 nM
- EC50 (A549): 8 nM
- EC50 (SDMA [2]): 1 nM
- EC50 (HCT-116-MTAP^-/-): 3.2 nM
SMILES: COC[C@@H](C)N(Cc1ccc2c(c1)OC(F)(F)O2)C(=O)c1cc2c(cc1F)nc(N)c1cnn(C)c12 [Example I-24]

- EC50 (SDMA [1]): 1.4 nM
- EC50 (A549): 33 nM
- EC50 (HCT-116): 1320 nM
- EC50 (SDMA [2]): 0.8 nM
- EC50 (SDMA [3]): 123 nM
- EC50 (HCT-116-MTAP^-/-): 5.3 nM
SMILES: Cn1ncc2c(N)nc3cc(F)c(C(=O)N(Cc4ccc5c(c4)OC(F)(F)O5)[C@H]4CCOC4)cc3c21 [Example I-25]

- EC50 (SDMA [1]): 1.7 nM
- EC50 (A549): 10.1 nM
- EC50 (SDMA [2]): 0.6 nM
- EC50 (HCT-116-MTAP^-/-): 3.5 nM
SMILES: COC[C@H](C)N(Cc1ccc2c(c1)OC(F)(F)O2)C(=O)c1cc2c(cc1F)nc(N)c1cnn(C)c12 [Example I-26]

- EC50 (SDMA [1]): 1 nM
- EC50 (A549): 24.4 nM
- EC50 (HCT-116): 510 nM
- EC50 (SDMA [2]): 0.8 nM
- EC50 (SDMA [3]): 120 nM
- EC50 (HCT-116-MTAP^-/-): 4.2 nM
SMILES: Cn1ncc2c(N)nc3cc(F)c(C(=O)N(Cc4ccc5c(c4)OC(F)(F)O5)C[C@@H]4COCCO4)cc3c21 [Example I-27]

The next lines start with the compound.

SMILES: CC1OCc2c1c(N)nc1cc(F)c(C(=O)N3CCOC[C@@H]3c3ccc4c(c3)OC(F)(F)O4)cc21 (single isomer, unassigned) [I-34 (PEAK2)]
- EC50 (SDMA [1]): 1.1 nM
- EC50 (A549): 43.5 nM
- EC50 (HCT-116): 980 nM
- EC50 (SDMA [2]): 1.3 nM
- EC50 (SDMA [3]): 60.7 nM
- EC50 (HCT-116-MTAP^-/-): 8.3 nM

SMILES: CN(Cc1ccc2c(c1)OC(F)(F)O2)C(=O)c1ccc2nc(N)c3cnn(C)c3c2c1 [Example I-2]
- EC50 (SDMA [1]): 8.3 nM
- AUC(0-inf) ([4]; SD, plasma, 2 mg/kg, IV 2mpk): 6.91 µM·h
- AUC(0-t) ([4]; SD, plasma, 2 mg/kg, IV 2mpk): 6.42 µM·h
- C0 ([4]; SD, plasma, 2 mg/kg, IV 2mpk): 2340 nM
- MRT inf ([4]; SD, plasma, 2 mg/kg, IV 2mpk): 4.3 h
- Vd ([4]; SD, plasma, 2 mg/kg, IV 2mpk, read-out: Vz): 3.4 L/kg
- AUC(0-inf) ([4]; SD, plasma, 10 mg/kg, PO 10mpk): 17.2 µM·h
- AUC(0-t) ([4]; SD, plasma, 10 mg/kg, PO 10mpk): 14.8 µM·h
- Cmax ([4]; SD, plasma, 10 mg/kg, PO 10mpk): 1680 nM
- Tmax ([4]; SD, plasma, 10 mg/kg, PO 10mpk): 2.3 h
- MRT inf ([4]; SD, plasma, 10 mg/kg, PO 10mpk): 7.2 h
- CLz ([4]; IV 2mpk): 13 mL/min/kg
- R_AUC(t/∞) ([4]; IV 2mpk): 91.6%
- t1/2z ([4]; IV 2mpk): 3.5 h
- R_AUC(t/∞) ([4]; PO 10mpk): 86.6%
- t1/2z ([4]; PO 10mpk): 4.7 h
- F ([4]; PO 10mpk (IV reference 2mpk; 0.2mpk for I-7)): 49.9%
- AUC(0-inf) [5, 6]: 4.11 µM·h
- AUC(0-t) [5, 6]: 3.53 µM·h
- C0 [5, 6]: 1520 nM
- MRT inf [5, 6]: 4 h
- Vd ([5]; male, Balb/c, plasma, 2 mg/kg, IV 2mpk, read-out: Vz): 4.7 L/kg
- AUC(0-inf) [5, 7]: 18.8 µM·h
- AUC(0-t) [5, 7]: 18.1 µM·h
- Cmax [5, 7]: 2190 nM
- Tmax [5, 7]: 1 h
- MRT inf [5, 7]: 7.1 h
- CLz ([5]; IV 2mpk): 18.3 mL/min/kg
- R_AUC(t/∞) ([5]; IV 2mpk): 85.8%
- t1/2z ([5]; IV 2mpk): 2.8 h
- R_AUC(t/∞) ([5]; PO 10mpk): 96.3%
- t1/2z ([5]; PO 10mpk): 5.5 h
- F ([5]; PO 10mpk vs IV 2mpk): 91.5%
- EC50 (HCT-116): 6740 nM
- EC50 (SDMA [2]): 5.1 nM
- EC50 (SDMA [3]): 1010 nM
- EC50 (HCT-116-MTAP^-/-): 42.6 nM

SMILES: CCN(Cc1ccc2c(c1)OC(F)(F)O2)C(=O)c1cc2c(cc1F)nc(N)c1cnn(C)c12 [Example I-6]
- EC50 (SDMA [1]): 2 nM
- EC50 (A549): 27.4 nM
- EC50 (HCT-116): 389 nM
- EC50 (SDMA [2]): 1.9 nM
- EC50 (HCT-116-MTAP^-/-): 2.4 nM

SMILES: C[C@@H]1COCC(c2ccc3c(c2)OC(F)(F)O3)N1C(=O)c1cc2c(cc1F)nc(N)c1cnn(C)c12 (some centres unmarked) [Example I-11]
- EC50 (SDMA [1]): 0.4 nM
- EC50 (A549): 2.5 nM
- EC50 (SDMA [2]): 0.3 nM
- EC50 (HCT-116-MTAP^-/-): 0.9 nM

SMILES: C[C@@H]1COCC(c2ccc3c(c2)OC(F)(F)O3)N1C(=O)c1ccc2nc(N)c3cnn(C)c3c2c1 (some centres unmarked) [Example I-12]
- EC50 (SDMA [1]): 0.5 nM
- EC50 (A549): 8.9 nM
- EC50 (HCT-116): 287 nM
- EC50 (SDMA [2]): 0.3 nM
- EC50 (HCT-116-MTAP^-/-): 2.7 nM

SMILES: CC1OCc2c1c(N)nc1cc(F)c(C(=O)N3C(c4ccc5c(c4)OC(F)(F)O5)COC[C@H]3C)cc21 (some centres unmarked) [Example I-39]
- EC50 (SDMA [1]): 0.7 nM
- EC50 (A549): 18.5 nM
- EC50 (SDMA [2]): 0.9 nM
- EC50 (HCT-116-MTAP^-/-): 2.5 nM

SMILES: Cn1cnc(CN(Cc2ccc3c(c2)OC(F)(F)O3)C(=O)c2cc3c(cc2F)nc(N)c2cnn(C)c23)n1 [Example I-41]
- EC50 (SDMA [1]): 0.7 nM
- EC50 (A549): 16.8 nM
- EC50 (SDMA [2]): 1.1 nM
- EC50 (HCT-116-MTAP^-/-): 1.6 nM
